In patent US11993581B2, “Pyridazine compounds for inhibiting Nav1.8” (Lieber Institute, Inc., priority 2018, dated 2024):

Molecular target: T1, human Nav1.8 (hNav1.8) ion channel (Homo sapiens, UniProt Q9Y5Y9)
T1 construct: expressed in transfected cells
Assay: Nav1.8 inhibition, estimated IC50 (Nav1.8 fluorescence, PatchXpress and/or IonFlux HT automated patch clamp assay)
Format: cell-based
Conditions: HEK293 cells stably expressing hNav1.8; determined using one or more of the described methods; read-out: Activity range (estimated IC50)
Procedure: The ability of pyridine carboxamide derivatives exemplified above to inhibit the Nav1.8 channel was determined using one or more of the methods described below.
HEK Nav1.8 β1/β2 Stably Expressing Cell Line
A HEK293 cell line stably expressing the human Nav1.8 (hNav1.8) ion channel with β1/β2 subunits was constructed. The cell line is suitable for IC50 determination in fluorescence and electrophysiological based assays. It is also suitable to conduct mechanism of action pharmacology studies in electrophysiological assays. HEK293 Nav1.8 cells are grown as adherent monolayers in DMEM/high glucose media, 10% fetal bovine serum, Na pyruvate (2 mM), Hepes (10 mM) with selection agents G418 (400 mg/L) and puromycin (0.5 mg/L) at 37 degrees C., 10% CO2.
Nav1.8 Fluorescence Inhibition Assay
Compounds were made up to or supplied as a 10-mM stock solution using DMSO as the vehicle. Concentration-response curves were generated using a Matrix multichannel pipettor. Compound source plates were made by diluting 10 mM compound stocks to create 500 μM (100×) solutions in DMSO in 96-well v-bottom plates. Compounds were then serially diluted in 100% DMSO to generate a 5 point, 4-fold dilution scheme dose response curve. 2 μL of the 100× dose response curves were then added to preincubation and stimulation assay plates. 100 μL of pre-incubation buffer and 200 μl of stimulation buffer was then added to the plates resulting in a final assay test concentration range of 5 μM to 0.02 μM with a final DMSO concentration of 1%.
On the day of assay, plates were washed to remove cell culture media using 2K EBSS buffer (135 mM NaCl, 2 mM KCl, 5 mM Glucose, 2 mM CaCl2, 1 mM MgCl2, 10 mM HEPES, pH 7.4). The Na-sensitive fluorescent dye, Asante Natrium Green-2 (ANG-2) was incubated for 60 min to allow equilibration and then washed with 2K EBSS. Plates were then transferred to a fluorescence plate reader (FLIPR™, Molecular Devices) for fluorescence measurement using an excitation wavelength of 490 nm and an emission wavelength of 565 nm. Compounds were pre-incubated for 5 min at final test concentration in the presence of ouabain (30 μM) to inhibit Na+ efflux through Na+/K+ exchanger. Following the pre-incubation phase, hNav1.8 channels were stimulated with 10 μM of the pyrethroid deltamethrin to prevent channel inactivation. The assay was run for 15 minutes with vehicle and 30 μM tetracaine serving as negative and positive controls, respectively. The peak change in fluorescence relative to negative and positive control wells was calculated and fit with a logistic equation to determine IC50.
PatchXpress Nav1.8 Inhibition Assay
HEK-Nav1.8 β1/β2 cells were recorded in whole cell patch-clamp using the PatchXpress automated patch clamp platforms (Molecular Devices). Cell suspensions were obtained by trypsinization of adherent monolayers, followed by gentle rocking for minimally 30 min. Compounds were prepared from 10 mM DMSO stocks.
Nav1.8 channel variants were evaluated using Protocol 1 in which cells were initially voltage clamped at a holding potential of −100 mV to maintain Nav1.8 in a closed resting state. After current amplitude becomes stable, the mid-point voltage of steady state inactivation was determined for each cell using a series of 5 sec conditioning steps to increasingly depolarized voltages (−100 to 0 mV) The holding potential was then reset to a voltage that produces ˜50% inactivation (Vhalf-set automatically via PatchXpress scripts) so that closed and inactivated channel inhibition could be assessed. Protocol 1 was run at a frequency of 0.1 Hz until current amplitude is steady (automatically determined by PatchXpress scripts). The effect of test reagent on Nav current amplitude was monitored using custom PatchXpress stability scripts which determines the timing of compound addition and washout.
Data were processed and analyzed using DataXpress 2.0 (Molecular Devices). […]

T1 sequence (Q9Y5Y9 whole entry): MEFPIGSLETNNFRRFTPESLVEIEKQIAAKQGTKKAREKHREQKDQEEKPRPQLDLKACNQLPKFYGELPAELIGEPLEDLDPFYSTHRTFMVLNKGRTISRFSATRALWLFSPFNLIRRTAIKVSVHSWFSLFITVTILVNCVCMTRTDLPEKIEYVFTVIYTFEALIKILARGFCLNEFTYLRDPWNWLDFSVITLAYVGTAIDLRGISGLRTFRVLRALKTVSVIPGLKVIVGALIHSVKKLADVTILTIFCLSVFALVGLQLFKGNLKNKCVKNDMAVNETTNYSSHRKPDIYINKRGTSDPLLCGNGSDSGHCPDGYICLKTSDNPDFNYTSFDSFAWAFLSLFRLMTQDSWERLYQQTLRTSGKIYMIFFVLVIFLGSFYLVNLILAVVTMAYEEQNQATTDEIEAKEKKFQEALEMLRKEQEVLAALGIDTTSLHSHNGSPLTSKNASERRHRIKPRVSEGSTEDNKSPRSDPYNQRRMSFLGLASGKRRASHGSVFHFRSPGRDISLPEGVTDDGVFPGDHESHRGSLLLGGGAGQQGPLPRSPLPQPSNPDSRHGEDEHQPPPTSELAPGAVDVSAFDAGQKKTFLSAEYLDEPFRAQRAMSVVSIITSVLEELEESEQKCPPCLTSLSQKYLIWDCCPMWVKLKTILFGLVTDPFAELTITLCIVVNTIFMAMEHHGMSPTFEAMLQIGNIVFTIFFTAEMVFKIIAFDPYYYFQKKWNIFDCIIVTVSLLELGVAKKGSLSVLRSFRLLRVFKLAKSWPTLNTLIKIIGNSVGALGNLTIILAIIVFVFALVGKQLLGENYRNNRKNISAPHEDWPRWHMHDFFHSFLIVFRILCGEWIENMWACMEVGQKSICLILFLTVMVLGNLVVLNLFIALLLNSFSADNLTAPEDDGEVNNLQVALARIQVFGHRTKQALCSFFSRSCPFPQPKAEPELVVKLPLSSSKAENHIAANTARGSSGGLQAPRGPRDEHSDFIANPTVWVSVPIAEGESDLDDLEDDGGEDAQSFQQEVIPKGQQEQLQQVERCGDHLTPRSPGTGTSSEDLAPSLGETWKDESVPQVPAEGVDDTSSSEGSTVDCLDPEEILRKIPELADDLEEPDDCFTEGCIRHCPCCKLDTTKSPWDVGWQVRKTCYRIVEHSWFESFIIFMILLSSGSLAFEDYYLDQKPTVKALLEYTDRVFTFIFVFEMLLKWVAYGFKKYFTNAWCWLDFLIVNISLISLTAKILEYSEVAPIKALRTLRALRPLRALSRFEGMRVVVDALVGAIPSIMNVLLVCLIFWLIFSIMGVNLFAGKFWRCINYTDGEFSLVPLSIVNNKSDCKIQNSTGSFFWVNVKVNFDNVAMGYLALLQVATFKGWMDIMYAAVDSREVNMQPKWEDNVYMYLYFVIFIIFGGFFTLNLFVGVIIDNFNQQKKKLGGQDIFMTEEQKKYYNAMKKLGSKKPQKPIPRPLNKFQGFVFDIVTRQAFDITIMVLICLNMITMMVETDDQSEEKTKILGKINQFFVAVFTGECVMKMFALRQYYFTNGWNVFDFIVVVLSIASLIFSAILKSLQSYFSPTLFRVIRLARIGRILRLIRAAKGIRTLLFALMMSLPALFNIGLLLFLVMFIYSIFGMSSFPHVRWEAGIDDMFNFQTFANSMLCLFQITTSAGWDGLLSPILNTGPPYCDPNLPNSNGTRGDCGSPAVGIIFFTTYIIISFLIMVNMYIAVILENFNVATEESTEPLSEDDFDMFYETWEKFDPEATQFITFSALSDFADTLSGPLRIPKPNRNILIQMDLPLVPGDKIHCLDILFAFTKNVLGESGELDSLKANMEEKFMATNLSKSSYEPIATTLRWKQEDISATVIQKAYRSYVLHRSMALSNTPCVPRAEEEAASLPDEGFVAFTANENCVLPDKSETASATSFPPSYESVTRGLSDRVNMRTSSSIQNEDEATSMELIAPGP
T1 sequence (Q07699 19-218 partner): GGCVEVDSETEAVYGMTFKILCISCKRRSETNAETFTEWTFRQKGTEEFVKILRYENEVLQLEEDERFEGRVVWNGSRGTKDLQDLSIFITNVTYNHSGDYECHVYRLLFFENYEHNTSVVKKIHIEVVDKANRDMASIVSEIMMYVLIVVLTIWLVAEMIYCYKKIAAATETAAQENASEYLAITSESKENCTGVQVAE

IC50 | SMILES
< 500 nM | N#Cc1ccc(-c2cc(C(=O)NCc3ccccc3N3CCOCC3)cnn2)cc1 [Example 58, 6-(4-cyanophenyl)-N-[(2-morpholinophenyl)methyl]pyridazine-4-carboxamide]
< 500 nM | Cc1ccnc(N2CCOCC2)c1CNC(=O)c1cnnc(-c2ccc(OC(F)(F)F)cc2)c1 [Example 59, N-[(4-methyl-2-morpholino-3-pyridyl)methyl]-6-[4-(trifluoromethoxy)phenyl]pyridazine-4-carboxamide]
< 500 nM | Cc1ccnc(N2CCOCC2)c1CNC(=O)c1cnnc(-c2ccc(Cl)cc2)c1 [Example 60, 6-(4-chlorophenyl)-N-[(4-methyl-2-morpholino-3-pyridyl)methyl]pyridazine-4-carboxamide]
